Key:
Format in all cases: cell-based, human
[1] = test system: Wnt-5a antisense HB2 cells; experiment: Adhesion of Wnt-5a antisense HB2 cells to collagen I (MTS); settings: for adhesion to collagen I, concentration-dependent analysis: 95% pure peptides, different concentrations
Method: (§1) The adhesion assay was carried out as previously described (12). Briefly, cells were serum-depleted for 16 h, detached with Versene and allowed to adhere as single cells to collagen I for 60 (MDA-MB-468) or 90 min (HB2) at 37° C. Non-adherent cells were removed by washing with PBS. The adherent cells were incubated with a (3-(4,5-dimethylthiazol-2-yl)-5-(3-carboxymethoxyphenyl)-2-(-4-sulfophenyl)-2H-tetrazolium, inner salt (MTS) dye reduction assay (Promega, Madison, Wis.) and absorbance was measured at 490 nm using a Fluostar microplate reader from BMG LabTechnologies (GmbH, Offenberg, Germany). In each experiment a single value was calculated based on the mean of adhesion from six separate wells after the adhesion to plastic alone had been subtracted. The CM used as a control in the adhesion assays was obtained from confluent Wnt-5a overexpressing HB2 cells (for experiments with Wnt-5a antisense HB2 cells) or Wnt-5a overexpressing MCF-7 cells (for MDA-MB-468 cells) stably transfected with a vector over-expressing Wnt5a. A collected CM was always used within three days.
To control the specificity of the CM, it was incubated with either the Wnt-5a or a control Ab for 45 min at 37° C. Subsequently 10 μl Protein A Sepharose was added for 30 min and after the protein A-bound antibodies were collected by centrifugation the remaining supernatants were used for the experiments.
Effects of crude peptides on adhesion of Wnt-5a antisense HB2 cells to collagen. (A) Single cells were allowed to adhere for 90 min in the absence or presence of the indicated crude peptides (100 μM). The amounts of adhesive cells were analyzed as described in the methods and the results are given as means±SEM of 7 separate experiments. (B) Adhesion of Wnt-5a antisense HB2 cells to collagen was analyzed after pre-treating the cells with an anti-[…]1-integrin Ab for 45 min before letting them adhere for 90 min in the absence or presence of peptides 171 or 175 (100 μM) or CM. The amounts of adhesive cells were analyzed as described in the methods and the results are given as means±SEM of 6 separate experiments (C) The diagram outlines a control of the presently used CM. The cells were allowed to adhere to collagen I-coated wells in the absence or presence of normal CM or Wnt-5a depleted CM. The amounts of adhesive cells were analyzed as described in the methods and the results are given as means±SEM of 6 separate experiments. Ns=not significant, * p<0.05, ** p<0.01 and *** p<0.001.
Effects of the selected and pure peptides on the ability of Wnt-5a antisense HB2 cells to adhere and migrate. (A-E) The ability of the cells to adhere to collagen type I-coated wells was analyzed as previously described for FIG. 2 in the absence or presence of different concentrations of the indicated peptide. (F) Effect of the indicated peptides on migration of Wnt-5a antisense HB2 in a transwell migration assay. The cells were allowed to migrate for 18 h in the absence or presence of 100 μM peptide or 0.4 μg/ml of recombinant Wnt5a. The data are given as means±SEM of 6-7 separate experiments, each performed in triplicate. * p<0.05 and ** p<0.01.

MDA-MB-468 cells = experiment: Adhesion of MDA-MB-468 breast cancer cells to collagen I (MTS); settings: pure peptide 100 μM; 60 min
Method: as §1
Peptide-induced effects on adhesion and DDR1 phosphorylation in MDA-MB-468 breast cancer cells. (A) Western blot analysis of Wnt-5a protein expression in Wnt-5a antisense and Wnt-5a over-expressing HB2 cells in comparison to MDA-MB-468 tumour cells. The blot is representative of 9 separate experiments. (B) Peptide-induced effects on MDA-MB-468 tumour cell adhesion. The cells were allowed to adhere to collagen type I-coated wells for 60 min in the absence or presence of 100 μM of the indicated peptides or CM. The amounts of adhesive cells were analyzed as described in the methods and the results are given as means±SEM of 8 separate experiments. (C) MDA-MB-468 cell adhesion to collagen I-coated wells in the absence or presence of peptide 175 or a peptide with same amino acid sequence except for a substitution of cysteine for alanine (175Ala) or CM. The amount of adherent cells was estimated as in panel A and expressed as means±SEM of 6 separate experiments, ns=not significant, ** p<0.01 and *** p<0.001. (D) Single MDA-MB-468 cells were allowed to adhere to collagen I-coated plates for 60 min in the absence or presence of the indicated peptides (100 μM), CM or recombinant Wnt-5a (0.8 µg/ml). DDR1 immunoprecipitates were Western blotted with first an anti-phosphotyrosine Ab and then after stripping with an anti-DDR1 Ab. The blots shown are representative of 6 separate experiments.
Effects of peptide 175 modifications on its ability to induce MDA-MB-468 tumour cell adhesion and migration. (A) The cells were allowed to adhere for 60 min to collagen-I coated wells in the absence or presence of peptide 175, three stepwise N-terminal deletion variants of peptide 175 or a formylated version of the tested hexapeptide derived from peptide 175. The amounts of adhesive cells were analyzed as described in the methods and the results are given as means±SEM of 6 separate experiments. (B and C) The cells were allowed to migrate for 18 h in the absence or presence of 1 or 10 μM of peptide 175 (B) or the formylated hexapeptide (C). The data are given as means±SEM of 6 separate experiments, each performed in triplicate. * p<0.05, p<0.01.

[2] = test system: filamentous actin (F-actin); experiment: F-actin content of MDA-MB-468 cells (AlexaFluor 488 phalloidin fluorescent microscopy); settings: peptide 100 μM; 18 h; compared to untreated cells
Method: MDA-MB-468 cells were detached from the tissue culture dishes by incubation with Versene for 10 min at 37° C., washed, re-suspended as single cells in serum-free DMEM medium supplemented with 0.5% BSA with or without peptide 175 (100 μM), and plated on a cover glass, pre-coated with 10 µg/ml collagen-I, in a cell culture dish. These experiments were terminated after 18 h by fixing the cells with 4% paraformaldehyde for 10 min at 4° C.
The cells were then permeabilized by incubation with 0.5% Trition X-100 for 5 min and blocked by incubation with a 3% BSA solution supplemented with 0.3% Triton X-100 for 45 min. The staining of the cells was performed in the dark by incubation for 40 min with AlexaFluor® 488 phalloidin (Molecular Probes, Eugene, Oreg.) at a dilution of 1:500 and in the presence of 1% BSA. Thereafter the cells were extensively washed and finally mounted with Dako Cytomation fluorescent mounting medium. The samples were examined and photographed in a Nikon Eclipse 800 microscope using a 60× oil immersion objective.
Peptide-induced effects on MDA-MB-468 tumour cell migration and their content of F-actin. (A) The cells were allowed to migrate for 18 h in the absence or presence of the indicated peptides (100 μM) The data in panel A are expressed as means±SEM of 8 separate experiments, each performed in triplicate. * p<0.05. […]

| Sequence | adhesion to collagen I, concentration-dependent analysis [1] | adhesion to collagen I (MDA-MB-468 cells) | cellular content of filamentous actin (F-actin) [2] | adhesion to collagen after pre-treatment with blocking anti-β1-integrin Ab ([1]; anti-β1-integrin Ab 45 min at 37° C., peptide 100 μM, 90 min) | adhesion to collagen I ([1]; crude peptide (65% pure) 100 μM, 90 min) |
| --- | --- | --- | --- | --- | --- |
| ADFRKVGDALKEKYD [peptide 169, Wnt-5a aa 242-256] | increased when tested at higher purity | significantly increased | – | – | – |
| NKTSEGMDGCEL (Human) [peptide 175, Wnt-5a aa 311-322] | most effective | significantly increased | significantly higher cellular content of filamentous actin | – | – |
| SQLAGLSQGQKKL [peptide 171, Wnt-5a aa 55-67; negative control] | lost or less consistent | – | – | most likely β1-integrin-dependent | significant effect on adhesion |

From patent publication US20080207521A1, “PEPTIDE LIGAND TO IMPAIR CANCER CELL MIGRATION” (priority 2005, published 2008)
